Data published in patent publication US10588892B2, “Pharmaceutical composition comprising sacubitril and valsartan” (priority 2017, dated 2020).

Assay: Stability of polymorphic forms towards relative humidity
Assay type: physicochemical
Conditions: for stability at low relative humidity: relative humidity below 40%, temperatures between 15 and 30° C.
Experimental: Changes in humidity have less impact on the valsartan disodium form 2 as compared to the prior art form 1. […] By using valsartan disodium form 2 and by preparing the composition in an environment with relative humidity below 40%, at temperatures between 15 and 30° C., formation of the co-crystal is completely avoided. Any polymorphic form of sacubitril sodium can be used in accordance with the present invention. Preferably, the polymorphic form of sacubitril sodium is, like valsartan disodium form 2, very stable at relative humidity below […], at temperatures between 15 and 30° C. Particularly preferred polymorphic forms of sacubitril sodium to be used in a composition comprising a physical mixture with valsartan disodium form 2 are sacubitril sodium form 1 and form 2. Sacubitril sodium form 1 has an X-ray powder diffraction pattern comprising characteristic peaks at the following 2 theta (±0.2) angles: 3.14°, 6.25°, 11.97°, 12.73°, 13.78°, 16.50°, 18.35°, 19.93°, 21.56°, 23.75°, 26.20°, measured using a Cu Kα radiation. Sacubitril sodium form 2 has an X-ray powder diffraction pattern comprising characteristic peaks at the following 2 theta (±0.2) angles: 5.26°, 10.52°, 10.92°, 14.78°, 16.96°, 17.17°, 17.51°, 19.92°, 20.40°, 20.81°, 22.23°, measured using a Cu Kα radiation. […] The most preferred polymorphic form of sacubitril sodium to be used with valsartan disodium form 2 in a composition in accordance with the present invention is form 1.

Structure (SMILES)	stability at low relative humidity	impact of changes in humidity compared with prior art form 1	stability compared with prior art form 1 (example 11 of WO2002006253)
CCOC(=O)[C@H](C)C[C@@H](Cc1ccc(-c2ccccc2)cc1)NC(=O)CCC(=O)O [Sacubitril sodium form 1, sacubitril sodium]	stable compounds	–	–
CCCCC(=O)N(Cc1ccc(-c2ccccc2-c2nnn[nH]2)cc1)[C@H](C(=O)O)C(C)C [valsartan disodium form 2, valsartan disodium]	particularly stable	less impact	more stable
